In patent US20250041363A1, “COMPOSITIONS AND METHODS FOR TREATMENT OF ALCOHOL USE DISORDER AND ALCOHOL-ASSOCIATED LIVER DISEASE” (UNIVERSITY OF LOUISVILLE RESEARCH FOUNDATION, INC., priority 2023, published 2025):

Tests used:
Format in all cases: in vivo, human
[1] = tested on: patients with moderately severe acute alcohol associated hepatitis (mAH, MELD <21) with heavy alcohol drinking; assay: Double-blind placebo-controlled trial of LGG: alcohol consumption (monthly alcohol use questionnaire); settings: for #Drinks (Weekly): LGG arm, baseline 34.71 ± 21.99
From the text: Conduct a pilot double-blind treatment trial identifying the dual therapeutic role of LGG in patients with comorbid AUD and moderate AH. Evaluate the therapeutic effects of LGG on lowering alcohol consumption over 6 months of treatment compared to placebo. Evaluate the therapeutic outcomes of LGG treatment on liver injury, progression and prognosis compared to placebo. Validate the central role of gut dysfunction in the altered gut-liver and gut-brain response in patients with AUD and moderate AH.
(§1) We analyzed data from 46 participants in a large NIAAA-funded clinical trial performed at 4 medical centers (DASH Consortium). This investigation was a double-blind placebo-controlled study of patients with moderately severe acute alcohol associated hepatitis (mAH, MELD <21) who had pre-existing/ongoing heavy alcohol drinking, with clinical assessments at multiple time points. Data on demographics, drinking, and liver injury were collected and assessed at baseline (BL), 1-month (1-m), 3-months (3-m), and 6-months (6-m). Alcohol consumption was measured by baseline AUDIT, monthly alcohol use questionnaire; and liver injury was assessed by standard liver injury markers. All patients received standard medical management for liver disease and counseling for AUD in the standard of care protocol.

AUD patients = assay: Pilot study of LGG in AUD patients: heavy drinking markers; settings: AUD patients treated for 6-months, preliminary results
[2] = tested on: patients with moderately severe acute alcohol associated hepatitis (mAH, MELD <21) with heavy alcohol drinking; assay: Double-blind placebo-controlled trial of LGG: liver injury, severity and progression markers; settings: for INR / ABIC / MELD / Creatinine / Albumin / AST:ALT / Total Bilirubin / ALT / AST: LGG arm; for INR: baseline 1.453 ± 0.35; for ABIC: baseline 6.3 ± 1.26; for MELD: baseline 17.42 ± 1.79; for Creatinine: baseline 0.64 ± 0.17; for Albumin: baseline 2.7 ± 0.6; for AST:ALT: baseline 2.74 ± 1.54; for Total Bilirubin: baseline 7.2 ± 4.5; for ALT: baseline 73.7 ± 46.7; for AST: baseline 169.0 ± 88.4
From the text: as §1

Lactobacillus rhamnosus GG [LGG]
drinking level reached (social or abstinence level) ([1]; 6-month assessment, compared to placebo): < 4 drinks/week | change in average drinks/week in LGG arm compared to the placebo arm ([1]; 6-month assessment, p=0.0128): significant drop | heavy drinking levels after treatment ([1]; 6 months of LGG treatment): reduced heavy drinking levels to the social drinking or abstinence levels | #Drinks (Weekly) ([1]; 1 month, n = 23): 1.81 ± 3.77 | #Drinks (Weekly) ([1]; 3 month, n = 18): 2.83 ± 7.71 | #Drinks (Weekly) ([1]; 6 month, n = 16): 0.31 ± 1.01 | lowering of alcohol consumption (average drinking/week) over 6 months within group ([1]; over 6 months, p≤0.001 in the LGG group): significant, with higher significance | patients with reduction of alcohol drinks/week to the level of social drinking criteria ([1]; vs four of the 22 placebo, Fisher's exact test p=0.0012, Likelihood ratio=9.0): sixteen of the 24 | heavy drinking markers (AUD patients): reduction of heavy drinking markers | 1 month change in MELD, LGG arm compared to the placebo arm ([2]; 1 month, FIG. 2A): significantly dropped | 1 month change in ABIC score ([2]; 1 month, FIG. 2C, p=0.005): dropped significantly | drop in the AST:ALT ratio, LGG arm compared to the placebo arm ([2]; FIG. 2B): significant | INR ([2]; 1 month, n = 17): 1.32 ± 0.3 Unit Score | ABIC ([2]; 1 month, n = 17): 5.84 ± 1.2 Unit Score | MELD ([2]; 1 month, n = 17): 13.29 ± 4.34 Unit score | Creatinine ([2]; 1 month, n = 18): .81 ± 0.5 mg/dL | Albumin ([2]; 1 month, n = 18): 3.5 ± 0.8 g/dL | AST:ALT ([2]; 1 month, n = 18): 1.99 ± 1.2 | Total Bilirubin ([2]; 1 month, n = 18): 2.54 ± 1.4 mg/dL | ALT ([2]; 1 month, n = 18): 43.6 ± 44.9 U/L | AST ([2]; 1 month, n = 18): 71.72 ± 59.9 U/L | Creatinine ([2]; 3 month, n = 17): 0.90 ± 0.4 mg/dL | INR ([2]; 3 month, n = 17): 1.31 ± 0.45 Unit Score | Albumin ([2]; 3 month, n = 17): 3.6 ± 0.9 g/dL | AST:ALT ([2]; 3 month, n = 17): 1.7 ± 0.82 | ABIC ([2]; 3 month, n = 17): 5.98 ± 1.5 Unit Score | Total Bilirubin ([2]; 3 month, n = 17): 3.82 ± 8.3 mg/dL | MELD ([2]; 3 month, n = 17): 12.06 ± 7.73 Unit score | ALT ([2]; 3 month, n = 17): 33.39 ± 36.27 U/L | AST ([2]; 3 month, n = 17): 58.65 ± 51.9 U/L | Total Bilirubin ([2]; 6 month, n = 15): 2.8 ± 3.84 mg/dL | MELD ([2]; 6 month, n = 15): 12.40 ± 8.4 Unit score | Creatinine ([2]; 6 month, n = 16): 0.88 ± 0.35 mg/dL | INR ([2]; 6 month, n = 16): 1.41 ± 0.69 Unit Score | Albumin ([2]; 6 month, n = 16): 4.01 ± 0.94 g/dL | AST:ALT ([2]; 6 month, n = 16): 1.65 ± 0.97 | ABIC ([2]; 6 month, n = 16): 6.08 ± 1.46 Unit Score | ALT ([2]; 6 month, n = 16): 38.75 ± 32.48 U/L | AST ([2]; 6 month, n = 16): 48.75 ± 25.20 U/L | biomarkers of liver injury progression and severity ([2]; LGG treatment, summary): significant reduction
